The results in this text go back to patent publication US20220251036A1, “DIFLUOROHALOALLYLAMINE SULFONE DERIVATIVE INHIBITORS OF LYSYL OXIDASES, METHODS OF PREPARATION, AND USES THEREOF” (PHARMAXIS LTD., priority 2019, published 2022).

Where two headings read alike, the source gives them in different places. Where only a bound is given, the exact number is not on record here.

The target of assay [1] is T1, Human recombinant SSAO/VAP-1 (Homo sapiens, UniProt Q16853).
T1 construct: residues 34-763 of human SSAO/VAP-1; TEV cleavage site (N); made in house
T1 sequence (Q16853 34-763): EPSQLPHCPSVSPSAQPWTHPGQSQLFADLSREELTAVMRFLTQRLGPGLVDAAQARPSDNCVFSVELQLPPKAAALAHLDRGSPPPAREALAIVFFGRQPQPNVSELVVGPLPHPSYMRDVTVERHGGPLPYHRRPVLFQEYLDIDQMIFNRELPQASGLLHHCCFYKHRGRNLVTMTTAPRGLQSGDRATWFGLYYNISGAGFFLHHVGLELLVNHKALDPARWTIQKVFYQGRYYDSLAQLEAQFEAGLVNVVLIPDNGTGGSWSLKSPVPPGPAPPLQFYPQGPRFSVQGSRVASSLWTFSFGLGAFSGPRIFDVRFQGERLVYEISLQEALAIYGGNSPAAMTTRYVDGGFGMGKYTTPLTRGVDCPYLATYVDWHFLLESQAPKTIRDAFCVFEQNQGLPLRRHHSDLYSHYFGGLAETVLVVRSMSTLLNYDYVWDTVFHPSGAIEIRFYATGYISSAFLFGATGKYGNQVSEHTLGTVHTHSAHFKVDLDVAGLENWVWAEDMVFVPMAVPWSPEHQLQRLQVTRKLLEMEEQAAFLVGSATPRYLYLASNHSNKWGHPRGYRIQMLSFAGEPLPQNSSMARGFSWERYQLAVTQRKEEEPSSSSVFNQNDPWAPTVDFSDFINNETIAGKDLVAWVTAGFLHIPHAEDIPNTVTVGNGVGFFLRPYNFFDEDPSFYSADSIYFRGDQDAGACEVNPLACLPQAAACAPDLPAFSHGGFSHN
Description: SSAO/VAP-1 inhibition. Type of assay: biochemical. Particulars: 30 min incubation at 37° C, benzylamine 600 μM. The method, then:
Human recombinant SSAO/VAP-1 amine oxidase activity was determined using the coupled colorimetric method as described for monoamine oxidase, copper-containing amine oxidases and related enzymes (Holt A. and Palcic M., A peroxidase-coupled continuous absorbance plate-reader assay for flavin monoamine oxidases, copper-containing amine oxidases and related enzymes. Nat Protoc 2006; 1: 2498-2505). Briefly, a cloned cDNA template corresponding to residues 34-763 of human SSAO/VAP-1, and incorporating a mouse Ig kappa (κ) signal sequence, N-terminal flag epitope tag and tobacco etch virus (TEV) cleavage site, was assembled in a mammalian expression vector (pLO-CMV) by Geneart AG. This vector containing human SSAO/VAP-1 residues was transfected into CHO-K1 glycosylation mutant cell line, Lee 8. A clone stably expressing human SSAO/VAP-1 was isolated and cultured in large scale. Active human SSAO/VAP-1 was purified and recovered using immunoaffinity chromatography. This was used as the source for SSAO/VAP-1 activity. A high-throughput fluorescent assay was developed using either 96 or 384 well format. Briefly, in a standard 96 well plate assay 50 μL of purified human SSAO/VAP-1 (0.25 μg/mL) in 0.1 M sodium phophate buffer (pH 7.4) was added into each well. Test compounds were dissolved in DMSO and tested in a Concentration Response Curve (CRC) with 4-11 data points, typically in the micromolar or nanomolar range after incubation with human SSAO/VAP-1 for 30 min at 37° C. After 30 min incubation, 50 μL of the reaction mixture containing 600 μM benzylamine (Sigma Aldrich), 120 μM Amplex Red (Sigma Aldrich) and 1.5 U/mL horseradish peroxidase (Sigma Aldrich) prepared in 0.1 M sodium phosphate buffer (pH 7.4) were added to the corresponding well. The fluorescence unit (RFU) was read every 2.5 min for 30 min at 37° C. excitation 565 nm and emission 590 (Optima; BMG labtech). The slope of the kinetics for each well was calculated using MARS data analysis software (BMG labtech) and this value was used to deduce the IC50 value (Dotmatics).

The target of assay [2] is T2, Human recombinant LOXL4 (Homo sapiens, UniProt Q96JB6).
T2 sequence (Q96JB6 25-756): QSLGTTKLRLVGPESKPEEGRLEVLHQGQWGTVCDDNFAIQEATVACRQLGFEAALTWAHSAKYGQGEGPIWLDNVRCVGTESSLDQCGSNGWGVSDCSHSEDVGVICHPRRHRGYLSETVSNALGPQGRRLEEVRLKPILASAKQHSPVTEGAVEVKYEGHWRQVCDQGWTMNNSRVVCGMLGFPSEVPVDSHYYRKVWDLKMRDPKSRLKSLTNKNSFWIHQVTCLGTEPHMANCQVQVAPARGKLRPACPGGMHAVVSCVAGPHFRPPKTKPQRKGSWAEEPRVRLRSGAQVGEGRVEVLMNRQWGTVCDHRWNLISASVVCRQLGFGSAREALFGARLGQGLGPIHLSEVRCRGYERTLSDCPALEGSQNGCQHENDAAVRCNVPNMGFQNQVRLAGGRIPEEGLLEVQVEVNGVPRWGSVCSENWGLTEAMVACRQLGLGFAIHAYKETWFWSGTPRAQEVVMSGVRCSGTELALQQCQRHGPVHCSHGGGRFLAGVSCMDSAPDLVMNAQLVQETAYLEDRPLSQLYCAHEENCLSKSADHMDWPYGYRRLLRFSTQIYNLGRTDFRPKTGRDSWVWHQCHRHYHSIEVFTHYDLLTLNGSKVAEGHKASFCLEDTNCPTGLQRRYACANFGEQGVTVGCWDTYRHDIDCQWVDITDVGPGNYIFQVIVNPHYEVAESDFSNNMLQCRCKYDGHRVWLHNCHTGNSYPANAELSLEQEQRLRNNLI
Description: LOXL4 inhibition, Amplex Red oxidation assay. Type of assay: biochemical. The method, then: LOX and LOXL protein family members can be acquired as recombinant active proteins from commercial sources, or extracted from animal tissues like bovine aorta, tendons, pig skin; or prepared from cell cultures. […] The assay was developed using either 384 or 96 well format. Briefly, in a standard black, clear bottom 384 well plate assay 25 μL of a dilution of any of the isoenzymes and orthologues in 1.2 M urea, 50 mM sodium borate buffer (pH 8.2) were added into each well in the presence of 1 μM mofegiline and 0.5 mM pargyline (to inhibit SSAO and MAO-B and MAO-A, respectively; not necessary if the enzyme is from a recombinant or purified form). Test compounds were dissolved in DMSO and tested in a Concentration Response Curve (CRC) with 11 data points, typically in the micromolar or nanomolar range after incubation with the enzyme for 30 min at 37° C. 25 μL of a reaction mixture containing twice the KM concentration of putrescine (Sigma Aldrich, e.g. 20 mM for LOX and LOXL1 or 10 mM for LOXL2 and 4 mM for LOXL3 and LOXL4), 120 μM Amplex Red (Sigma Aldrich) and 1.5 U/mL horseradish peroxidase (Sigma Aldrich) prepared in 1.2 M urea, 50 mM sodium borate buffer (pH 8.2) were then added to the corresponding wells. The above volumes were doubled in the case of 96 wells plate. The fluorescence (RFU) was read every 2.5 min for 30 min at […] 37° C., excitation 565 nm and emission 590 (Optima; BMG labtech). The slope of the kinetics for each well was calculated using MARS data analysis software (BMG labtech) and this value was used to deduce the IC50 value (Dotmatics). The ability of the inventive compounds to inhibit the amine oxidase activity of LOX and other family members is shown in Table 4.

Setting [3] is: incubation with enzyme 30 min at 37° C, read-out: Human recombinant LOXL4 Activity IC50.

The term IC50 denotes the midpoint of a concentration-inhibition curve. Take `CNc1ccccc1S(=O)(=O)C(F)(F)/C(F)=C/CN` [Compound 4, (Z)-2-((4-amino-1,1,2-trifluorobut-2-en-yl)sulfony1)-N-methylaniline]: the figures for the IC50 in assay [1] and in assay [2] (setting [3]) were 18000 nM and 700 nM, respectively.
On to `NC/C=C(\F)C(F)(F)[S+]([O-])c1ccccc1` (stereo not shown) [Compound 9, (Z)-3,4,4-trifluoro-4-(phenylsulfinyl)but-2-en-1-amine], for which the half-maximal inhibitory concentration (IC50) in assay [2] (setting [3]) was found to be 1100 nM.
Turning to `NC/C=C(\F)C(F)(F)S(=O)(=O)Cc1ccccc1` [Compound 8, (Z)-4-(benzylsulfony1)-3,4,4-trifluorobut-2-en-1-amine], the results for the IC50 in assay [1] and in assay [2] (setting [3]) were above 30000 nM and 100 nM, respectively.
For the compound `N#CCCN` [BAPN, β-aminopropionitrile, reference compound], the IC50 in assay [1] is above 30000 nM; in assay [2] (setting [3]) it was 300 nM.
As to `NC/C=C(\F)C(F)(F)S(=O)(=O)C1CCCC1` [Compound 19, (Z)-4-(cyclopentylsulfony1)-3,4,4-trifluorobut-2-en-1-amine], the half-inhibitory concentration (IC50) in assay [2] (setting [3]) came out at 500 nM.
For `Cc1ccccc1S(=O)(=O)C(F)(F)/C(F)=C/CN` [Compound 5, (Z)-3,4,4-trifluoro-4-(o-tolylsulfonyl)but-2-en-1-amine], the concentration for half-maximal inhibition (IC50) in assay [1] is above 30000 nM.
With `NC/C=C(\F)C(F)(F)S(=O)(=O)c1cccs1` [Compound 14, (Z)-3,4,4-trifluoro-4-(thiophen-2-ylsulfonyl)but-2-en-1-amine], the figures for the IC50 in assay [1] and in assay [2] (setting [3]) were 26600 nM and 200 nM, respectively.
As for `COc1cccc(S(=O)(=O)C(F)(F)/C(F)=C/CN)c1` [Compound 12, (Z)-3,4,4-trifluoro-4-((3-methoxyphenyl)sulfonyl)but-2-en-1-amine], the IC50 in assay [2] (setting [3]) was determined as 300 nM.
Turning to `NC/C=C(\F)C(F)(F)S(=O)(=O)c1ccccc1` [Compound 1, (Z)-3,4,4-trifluoro-4-(phenylsulfonyl)but-2-en-1-amine], in assay [2], the concentration for half-maximal inhibition (IC50) stood at 300 nM.
For the compound `Cc1ccc(S(=O)(=O)C(F)(F)/C(F)=C/CN)cc1` [Compound 6, (Z)-3,4,4-trifluoro-4-tosylbut-2-en-1-amine], the IC50 in assay [1] was above 30000 nM; in assay [2] (setting [3]) it was 300 nM.
Turning to `CS(=O)(=O)c1cccc(CS(=O)(=O)C(F)(F)/C(F)=C/CN)c1` [Compound 17, (Z)-3,4,4-trifluoro-4-((3-(methylsulfonyl)benzyl)sulfonyl)but-2-en-1-amine], the concentration for half-maximal inhibition (IC50) in assay [2] (setting [3]) came out at 200 nM.
As for `CS(=O)(=O)c1ccc(COc2ccccc2S(=O)(=O)C(F)(F)/C(F)=C/CN)cc1` [Compound 10, (Z)-3,4,4-trifluoro-4-((2-((4-(methylsulfonyl)benzyl)oxy)phenyl)sulfonyl) but-2-en-1-amine], the concentration for half-maximal inhibition (IC50) in assay [1] was determined as 14700 nM; in assay [2] (setting [3]), 100 nM.
As to `NC/C=C(\F)C(F)(F)S(=O)(=O)c1cccc2cccnc12` [Compound 2, (Z)-3,4,4-trifluoro-4-(quinolin-8-ylsulfonyl)but-2-en-1-amine], the half-inhibitory concentration (IC50) in assay [2] (setting [3]) amounted to 600 nM.
